Test results from patent publication US4644010A, “Certain β-oxo-α-carbamoylpyrrolepropionitriles” (Ciba-Geigy Corporation, priority 1984, dated 1987).

How the values were obtained:
[1] = system: established adjuvant arthritis in the rat; assay: established adjuvant arthritis test; format: in vivo; details: dose ranging from about 5 to 25 mg/kg/p.o.
Experimental: The established adjuvant arthritis test for anti-arthritic activity is performed essentially as described in Proc. Soc. Biol. Med. 137, 506 (1971).

[2] = system: phenyl-p-benzoquinone-induced writhing in mice; assay: phenyl-p-benzoquinone-induced writhing test for analgesic activity; format: in vivo; details: mouse, dose ranging from about 1 to 30 mg/kg p.o.
Experimental: The phenyl-p-benzoquinone-induced writhing test for analgesic activity, described in J. Pharmacol. Exp. Therap. 125, 237 (1959) is performed in mice as follows:
Mice previously fasted overnight are treated orally with the test compound dissolved in 0.75% methylcellulose at doses of 1 to 50 mg/kg, or with the vehicle alone, 55 minutes before the induction of the writhing syndrome by i.p. injection of 0.25 ml of a suspension of phenyl-p-benzoquinone (0.03%) in tragacanth (0.4%).
Starting 5 minutes, thereafter, the number of writhing movements provoked by the irritant are counted over an observation period of 10 minutes. The analgesic antinociceptive) ED50 of the test compound is the dose which reduces the mean frequency of writhing movements by 50% in comparison to the controls.

[3] = system: BCG-immunized adjuvant arthritic rat; assay: skin test (delayed hypersensitivity) in the BCG-immunized adjuvant arthritic rat; format: in vivo; details: 25 mg/kg/p.o.
Experimental: The enhancement of cell-mediated immunity is determined in vivo in the BCG-immunized arthritic rat by measurement of delayed hypersensitivity reaction essentially as described in Current Therapeutic Research 30, S34 (1981).
Charles River male rats weighing 325-400 g are sensitized by intradermal injection into the right hind foot pad with […] per animal of Mycobacterium tuberculosis (Difco) emulsified in Freund's incomplete adjuvant. Animals are immunized with 0.1 ml of BCG vaccine intradermally on day 18 after adjuvant injection. Corn starch suspensions of drugs are administered orally. Control animals are dosed with cornstarch vehicle only. All animals are skin-tested with 10 μg PPD intradermally on day 29 to elicit skin reactions. The diameter of the erythema and induration reaction is measured 24 hours after antigen challenge. An increase in the diameter of the erythema is indicative of enhanced cellular immunity.

[4] = system: proteoglycan matrix of bovine nasal septum cartilage; assay: cartilage-synovium co-culture model of cartilage matrix degradation; format: cell-based; details: concentration range of about 10^-7 M to 10^-5 M
Experimental: The compounds of the invention are also active in the cartilage-synovium co-culture model of cartilage matrix degradation, indicative of their effectiveness in osteoarthritis. The screen is carried out as follows:
The proteoglycan matrix of bovine nasal septum cartilage is labeled into vitro by incorporation of ^35 S into glycosaminoglycan. Cartilage slices are incubated overnight in a sulfate-free medium containing ^35 S-sodium sulfate. ^35 S-Labeled cartilage slices are co-cultured with normal synovium explants in multiwell tissue culture plates. After 4 days incubation a 100 μl aliquot of medium is counted. Cartilage slices are hydrolyzed and a 100 μl aliquot of cartilage hydrolysate is counted. The percent ^35 S released into the medium is determined and the percent of inhibition of matrix degradation is calculated.

| Compound | activity in the established adjuvant arthritis test [1] | activity in the phenyl-p-benzoquinone test for analgesia [2] | activity in the skin test (immunopotentiating activity) [3] | inhibition of cartilage matrix degradation in vitro [4] |
| --- | --- | --- | --- | --- |
| N#CC(C(=O)Nc1ccccc1)C(=O)c1ccc[nH]1 (stereo not drawn) [Example 1, β-oxo-α-(phenylcarbamoyl)-β-(2-pyrrolyl)-propionitrile] | active | active | significant activity | inhibit cartilage matrix degradation |
| N#CC(C(=O)Nc1ccc(Cl)cc1)C(=O)c1ccc[nH]1 (stereo not drawn) [Example 2, β-oxo-α-(4-chlorophenylcarbamoyl)-β-(2-pyrrolyl)propionitrile] | active | active | significant activity | inhibit cartilage matrix degradation |
| N#CC(C(=O)Nc1ccc(F)cc1F)C(=O)c1ccc[nH]1 (stereo not drawn) [Example 3, β-oxo-α-(2,4-difluorophenylcarbamoyl)-β-(2-pyrrolyl)-propionitrile] | active | active | – | inhibit cartilage matrix degradation |
| N#CC(C(=O)Nc1ccc(F)cc1)C(=O)c1ccc[nH]1 (stereo not drawn) [Example 5, β-oxo-α-(4-fluorohenylcarbamoyl)-β-(2-pyrrolyl)-propionitrile] | active | active | – | – |
